Results as given in patent publication US20240368169A1 (priority 2021, published 2024).

Assays:
[1] = molecular target: recombinant poly(ADP-ribose) polymerase 1 (PARP1) (Homo sapiens, UniProt P09874); experiment: biochemical; conditions: inhibition of PARP1 enzyme activity, chemiluminescence
[2] = molecular target: recombinant poly(ADP-ribose) polymerase 2 (PARP2) (Homo sapiens, UniProt Q9UGN5); experiment: biochemical; conditions: inhibition of PARP2 enzyme activity, chemiluminescence
MDA-MB-436 cells = experiment: Growth inhibition assay against BRCA mutant human breast cancer MDA-MB-436 cell line (CCK-8, 7 days); type: cell-based

recombinant poly(ADP-ribose) polymerase 1 (PARP1), sequence (P09874 whole entry): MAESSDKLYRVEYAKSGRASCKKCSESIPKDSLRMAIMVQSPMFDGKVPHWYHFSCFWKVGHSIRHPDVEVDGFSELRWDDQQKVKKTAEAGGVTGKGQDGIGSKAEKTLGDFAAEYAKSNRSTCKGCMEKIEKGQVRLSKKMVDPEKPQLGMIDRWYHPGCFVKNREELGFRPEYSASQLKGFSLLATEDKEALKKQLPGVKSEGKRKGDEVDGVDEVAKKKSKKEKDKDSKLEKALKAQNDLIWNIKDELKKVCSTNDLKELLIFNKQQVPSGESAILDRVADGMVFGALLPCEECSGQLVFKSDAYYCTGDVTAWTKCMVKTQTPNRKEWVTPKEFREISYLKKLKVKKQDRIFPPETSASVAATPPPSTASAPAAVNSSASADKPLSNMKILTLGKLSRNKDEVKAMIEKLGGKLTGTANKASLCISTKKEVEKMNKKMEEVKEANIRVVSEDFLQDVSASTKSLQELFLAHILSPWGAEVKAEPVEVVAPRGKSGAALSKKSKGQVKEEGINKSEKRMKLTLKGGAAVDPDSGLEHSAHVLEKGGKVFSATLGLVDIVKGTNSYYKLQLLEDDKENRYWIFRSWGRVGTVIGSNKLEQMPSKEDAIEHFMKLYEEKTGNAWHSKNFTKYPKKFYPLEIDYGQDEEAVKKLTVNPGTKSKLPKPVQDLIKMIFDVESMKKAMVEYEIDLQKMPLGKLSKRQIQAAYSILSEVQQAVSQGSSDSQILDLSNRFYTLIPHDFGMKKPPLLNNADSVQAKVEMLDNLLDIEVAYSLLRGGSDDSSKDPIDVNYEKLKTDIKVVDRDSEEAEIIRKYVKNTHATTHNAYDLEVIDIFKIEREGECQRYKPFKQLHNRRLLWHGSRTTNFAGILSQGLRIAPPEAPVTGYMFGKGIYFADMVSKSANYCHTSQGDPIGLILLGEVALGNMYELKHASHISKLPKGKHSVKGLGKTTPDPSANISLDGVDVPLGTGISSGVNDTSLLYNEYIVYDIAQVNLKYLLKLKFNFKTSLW
recombinant poly(ADP-ribose) polymerase 2 (PARP2), sequence (Q9UGN5 whole entry): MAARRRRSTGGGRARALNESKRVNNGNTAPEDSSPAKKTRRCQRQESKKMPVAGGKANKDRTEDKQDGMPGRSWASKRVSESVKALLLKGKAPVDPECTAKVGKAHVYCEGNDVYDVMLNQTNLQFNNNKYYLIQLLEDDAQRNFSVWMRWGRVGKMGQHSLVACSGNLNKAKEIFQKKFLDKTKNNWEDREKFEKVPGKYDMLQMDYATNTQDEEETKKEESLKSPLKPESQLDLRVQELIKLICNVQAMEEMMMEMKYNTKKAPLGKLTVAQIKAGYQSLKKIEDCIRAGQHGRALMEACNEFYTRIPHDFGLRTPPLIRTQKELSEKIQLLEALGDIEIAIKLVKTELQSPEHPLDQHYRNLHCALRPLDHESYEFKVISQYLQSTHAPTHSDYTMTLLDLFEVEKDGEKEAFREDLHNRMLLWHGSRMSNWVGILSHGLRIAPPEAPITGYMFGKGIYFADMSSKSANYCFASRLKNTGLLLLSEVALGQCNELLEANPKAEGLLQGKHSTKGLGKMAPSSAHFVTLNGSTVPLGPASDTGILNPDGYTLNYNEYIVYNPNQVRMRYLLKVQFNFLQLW

SMILES: CNC(=O)c1ccc(N2CCN(Cc3ccc4c(c3)[nH]c(=O)c3cncn34)CC2)c(F)n1 [Example 38, 7-((4-(2-fluoro-6-(methylcarbamoyl)pyridin-3-yl)piperazin-1-yl)methyl)imidazo[1,5-a]quinoxalin-4(5H)-one]
- IC50 [1]: 0.3 nM
- IC50 [2]: 59.9 nM
- IC50 (MDA-MB-436 cells): 4.06 nM

SMILES: CNC(=O)c1ccc(N2CCN(Cc3cc(F)c4c(c3)[nH]c(=O)c3cccn34)CC2)c(C)n1 [Example 40, 7-((4-(2-methyl-6-(methylcarbamoyl)pyridin-3-yl)piperazin-1-yl)methyl)-9-fluoropyrrolo[1,2-a]quinoxalin-4(5H)-one]
- IC50 [1]: 1.54 nM
- IC50 [2]: 38.7 nM
- IC50 (MDA-MB-436 cells): 1.15 nM

SMILES: CNC(=O)c1ccc(N2CCN(Cc3cc(F)c4c(c3)[nH]c(=O)c3ccnn34)CC2)c(F)n1 [Example 44, 7-((4-(2-fluoro-6-(methylcarbamoyl)pyridin-3-yl)piperazin-1-yl)methyl)-9-fluoropyrazolo[1,5-a]quinoxalin-4(5H)-one]
- IC50 [1]: 1.76 nM
- IC50 [2]: 318 nM
- IC50 (MDA-MB-436 cells): 2.17 nM

SMILES: CNC(=O)c1ccc(N2CCN(Cc3ccc4c(c3)[nH]c(=O)c3ccc(C)n34)CC2)c(C)n1 [Example 54, 7-((4-(2-methyl-6-(methylcarbamoyl)pyridin-3-yl)piperazin-1-yl)methyl)-1-methylpyrrolo[1,2-a]quinoxalin-4(5H)-one]
- IC50 [1]: 1.32 nM
- IC50 [2]: 12.7 nM
- IC50 (MDA-MB-436 cells): 1.85 nM

SMILES: CNC(=O)c1ccc(N2CCN(Cc3ccc4c(c3)[nH]c(=O)c3c(C)ccn34)CC2)c(C)n1 [Example 56, 7-((4-(2-methyl-6-(methylcarbamoyl)pyridin-3-yl)piperazin-1-yl)methyl)-3-methylpyrrolo[1,2-a]quinoxalin-4(5H)-one]
- IC50 [1]: 2.32 nM
- IC50 [2]: 37.9 nM
- IC50 (MDA-MB-436 cells): 0.65 nM

SMILES: CNC(=O)c1ccc(N2CCN(Cc3ccc4c(c3)[nH]c(=O)c3cc(C)nn34)CC2)c(C)n1 [Example 57, 7-((4-(2-methyl-6-(methylcarbamoyl)pyridin-3-yl)piperazin-1-yl)methyl)-2-methylpyrazolo[1,5-a]quinoxalin-4(5H)-one]
- IC50 [1]: 1.77 nM
- IC50 [2]: 67.9 nM
- IC50 (MDA-MB-436 cells): 1.43 nM

SMILES: Cc1nc(C(=O)NC2CC2)ccc1N1CCN(Cc2ccc3c(c2)[nH]c(=O)c2cccn23)CC1 [Example 59, 7-((4-(2-methyl-6-(cyclopropylcarbamoyl)pyridin-3-yl)piperazin-1-yl)methyl)pyrrolo[1,2-a]quinoxalin-4(5H)-one]
- IC50 [1]: 1.39 nM
- IC50 [2]: 21.9 nM
- IC50 (MDA-MB-436 cells): 0.99 nM

SMILES: Cc1nc(C(=O)NC2CC2)ccc1N1CCN(Cc2ccc3c(c2)[nH]c(=O)c2ccnn23)CC1 [Example 62, 7-((4-(2-methyl-6-(cyclopropylcarbamoyl)pyridin-3-yl)piperazin-1-yl)methyl)pyrazolo[1,5-a]quinoxalin-4(5H)-one]
- IC50 [1]: 0.29 nM
- IC50 [2]: 150 nM
- IC50 (MDA-MB-436 cells): 3.42 nM

SMILES: Cc1nc(C(=O)NC2CC2)ccc1N1CCN(Cc2cc(F)c3c(c2)[nH]c(=O)c2cccn23)CC1 [Example 66, 7-((4-(2-methyl-6-(cyclopropylcarbamoyl)pyridin-3-yl)piperazin-1-yl)methyl)-9-fluoropyrrolo[1,2-a]quinoxalin-4(5H)-one]
- IC50 [1]: 1.63 nM
- IC50 [2]: 66.1 nM
- IC50 (MDA-MB-436 cells): 1.66 nM

SMILES: O=C(NC1CC1)c1ccc(N2CCN(Cc3cc(F)c4c(c3)[nH]c(=O)c3cccn34)CC2)c(F)n1 [Example 67, 7-((4-(2-fluoro-6-(cyclopropylcarbamoyl)pyridin-3-yl)piperazin-1-yl)methyl)-9-fluoropyrrolo[1,2-a]quinoxalin-4(5H)-one]
- IC50 [1]: 2.02 nM
- IC50 [2]: 48.2 nM
- IC50 (MDA-MB-436 cells): 2.11 nM

SMILES: O=C(NC1CC1)c1ccc(N2CCN(Cc3cc(F)c4c(c3)[nH]c(=O)c3cccn34)CC2)c(Cl)n1 [Example 68, 7-((4-(2-chloro-6-(cyclopropylcarbamoyl)pyridin-3-yl)piperazin-1-yl)methyl)-9-fluoropyrrolo[1,2-a]quinoxalin-4(5H)-one]
- IC50 [1]: 1.61 nM
- IC50 [2]: 90.1 nM
- IC50 (MDA-MB-436 cells): 2.92 nM

SMILES: CNC(=O)c1ccc(N2CCN(Cc3ccc4c(c3)[nH]c(=O)c3cc(C)nn34)CC2)c(F)n1 [Example 69, 7-((4-(2-fluoro-6-(methylcarbamoyl)pyridin-3-yl)piperazin-1-yl)methyl)-2-methylpyrazolo[1,5-a]quinoxalin-4(5H)-one]
- IC50 [1]: 2.32 nM
- IC50 [2]: 49.9 nM
- IC50 (MDA-MB-436 cells): 1.08 nM

SMILES: CNC(=O)c1ccc(N2CCN(Cc3ccc4c(c3)[nH]c(=O)c3cc(C)nn34)CC2)c(Cl)n1 [Example 70, 7-((4-(2-chloro-6-(methylcarbamoyl)pyridin-3-yl)piperazin-1-yl)methyl)-2-methylpyrazolo[1,5-a]quinoxalin-4(5H)-one]
- IC50 [1]: 1.37 nM
- IC50 [2]: 103 nM
- IC50 (MDA-MB-436 cells): 1.41 nM

SMILES: CNC(=O)c1ccc(N2CCN(Cc3ccc4c(c3)[nH]c(=O)c3c(C)cnn34)CC2)c(F)n1 [Example 71, 7-((4-(2-fluoro-6-(methylcarbamoyl)pyridin-3-yl)piperazin-1-yl)methyl)-3-methylpyrazolo[1,5-a]quinoxalin-4(5H)-one]
- IC50 [1]: 1.35 nM
- IC50 [2]: 66.4 nM
- IC50 (MDA-MB-436 cells): 0.77 nM

SMILES: CNC(=O)c1ccc(N2CCN(Cc3ccc4c(c3)[nH]c(=O)c3c(C)cnn34)CC2)c(Cl)n1 [Example 72, 7-((4-(2-chloro-6-(methylcarbamoyl)pyridin-3-yl)piperazin-1-yl)methyl)-3-methylpyrazolo[1,5-a]quinoxalin-4(5H)-one]
- IC50 [1]: 1.12 nM
- IC50 [2]: 110 nM
- IC50 (MDA-MB-436 cells): 2.09 nM

SMILES: CNC(=O)c1ccc(N2CCN(Cc3cc(F)c4c(c3)[nH]c(=O)c3cc(C)nn34)CC2)c(F)n1 [Example 73, 7-((4-(2-fluoro-6-(methylcarbamoyl)pyridin-3-yl)piperazin-1-yl)methyl)-9-fluoro-2-methylpyrazolo[1,5-a]quinoxalin-4(5H)-one]
- IC50 [1]: 1.96 nM
- IC50 [2]: 78.1 nM
- IC50 (MDA-MB-436 cells): 1.77 nM

SMILES: CNC(=O)c1ccc(N2CCN(Cc3cc(F)c4c(c3)[nH]c(=O)c3cc(C)nn34)CC2)c(Cl)n1 [Example 74, 7-((4-(2-chloro-6-(methylcarbamoyl)pyridin-3-yl)piperazin-1-yl)methyl)-9-fluoro-2-methylpyrazolo[1,5-a]quinoxalin-4(5H)-one]
- IC50 [1]: 1.52 nM
- IC50 [2]: 186 nM
- IC50 (MDA-MB-436 cells): 1.58 nM

SMILES: CNC(=O)c1ccc(N2CCN(Cc3cc(F)c4c(c3)[nH]c(=O)c3c(C)cnn34)CC2)c(F)n1 [Example 76, 7-((4-(2-fluoro-6-(methylcarbamoyl)pyridin-3-yl)piperazin-1-yl)methyl)-9-fluoro-3-methylpyrazolo[1,5-a]quinoxalin-4(5H)-one]
- IC50 [1]: 2.1 nM
- IC50 [2]: 64.6 nM
- IC50 (MDA-MB-436 cells): 1.37 nM

SMILES: CNC(=O)c1ccc(N2CCN(Cc3cc(F)c4c(c3)[nH]c(=O)c3c(C)cnn34)CC2)c(Cl)n1 [Example 77, 7-((4-(2-chloro-6-(methylcarbamoyl)pyridin-3-yl)piperazin-1-yl)methyl)-9-fluoro-3-methylpyrazolo[1,5-a]quinoxalin-4(5H)-one]
- IC50 [1]: 1.51 nM
- IC50 [2]: 241 nM
- IC50 (MDA-MB-436 cells): 2.39 nM

SMILES: CNC(=O)c1ccc(N2CCN(Cc3cc(F)c4c(c3)[nH]c(=O)c3c(C)cnn34)CC2)c(C)n1 [Example 78, 7-((4-(2-methyl-6-(methylcarbamoyl)pyridin-3-yl)piperazin-1-yl)methyl)-9-fluoro-3-methylpyrazolo[1,5-a]quinoxalin-4(5H)-one]
- IC50 [1]: 1.38 nM
- IC50 [2]: 153 nM
- IC50 (MDA-MB-436 cells): 1 nM

SMILES: CNC(=O)c1ccc(N2CCN(Cc3cc(F)c4c5c(c(=O)[nH]c4c3)CCC5)CC2)c(F)n1 [Example 80, 7-((4-(2-fluoro-6-(methylcarbamoyl)pyridin-3-yl)piperazin-1-yl)methyl)-9-fluoro-1,2,3,5-tetrahydro-4H-cyclopenta[c]quinolin-4-one]
- IC50 [1]: 2.26 nM
- IC50 [2]: 32 nM
- IC50 (MDA-MB-436 cells): 2.37 nM

SMILES: CNC(=O)c1ccc(N2CCN(Cc3cc(F)c4c(c3)[nH]c(=O)c3cc(Cl)nn34)CC2)c(C)n1 [Example 87, 7-((4-(2-methyl-6-(methylcarbamoyl)pyridin-3-yl)piperazin-1-yl)methyl)-2-chloro-9-fluoropyrazolo[1,5-a]quinoxalin-4(5H)-one]
- IC50 [1]: 1.22 nM
- IC50 [2]: 84.1 nM
- IC50 (MDA-MB-436 cells): 0.94 nM

SMILES: CNC(=O)c1ccc(N2CCN(Cc3cc(F)c4c(c3)[nH]c(=O)c3cc(Cl)nn34)CC2)c(F)n1 [Example 88, 7-((4-(2-fluoro-6-(methylcarbamoyl)pyridin-3-yl)piperazin-1-yl)methyl)-2-chloro-9-fluoropyrazolo[1,5-a]quinoxalin-4(5H)-one]
- IC50 [1]: 1.72 nM
- IC50 [2]: 80.3 nM
- IC50 (MDA-MB-436 cells): 0.38 nM

SMILES: Cc1nc(C(N)=O)ccc1N1CCN(Cc2cc(F)c3c(c2)[nH]c(=O)c2ccnn23)CC1 [Example 89, 7-((4-(2-methyl-6-(carbamoyl)pyridin-3-yl)piperazin-1-yl)methyl)-9-fluoropyrazolo[1,5-a]quinoxalin-4(5H)-one]
- IC50 [1]: 1.72 nM
- IC50 [2]: 861 nM
- IC50 (MDA-MB-436 cells): 2.22 nM

SMILES: CCNC(=O)c1ccc(N2CCN(Cc3cc(F)c4c(c3)[nH]c(=O)c3ccnn34)CC2)c(C)n1 [Example 91, 7-((4-(2-methyl-6-(ethylcarbamoyl)pyridin-3-yl)piperazin-1-yl)methyl)-9-fluoropyrazolo[1,5-a]quinoxalin-4(5H)-one]
- IC50 [1]: 1.39 nM
- IC50 [2]: 627 nM
- IC50 (MDA-MB-436 cells): 2.81 nM

SMILES: Cc1nc(C(=O)NC2CC2)ccc1N1CCN(Cc2cc(F)c3c(c2)[nH]c(=O)c2ccnn23)CC1 [Example 92, 7-((4-(2-methyl-6-(cyclopropylcarbamoyl)pyridin-3-yl)piperazin-1-yl)methyl)-9-fluoropyrazolo[1,5-a]quinoxalin-4(5H)-one]
- IC50 [1]: 1.38 nM
- IC50 [2]: 238 nM
- IC50 (MDA-MB-436 cells): 5.05 nM

SMILES: CNC(=O)c1ccc(N2CCN(Cc3ccc4c([nH]c(=O)c5ccnn54)c3F)CC2)c(C)n1 [Example 94, 7-((4-(2-methyl-6-(methylcarbamoyl)pyridin-3-yl)piperazin-1-yl)methyl)-6-fluoropyrazolo[1,5-a]quinoxalin-4(5H)-one]
- IC50 [1]: 2.69 nM
- IC50 [2]: > 10000 nM
- IC50 (MDA-MB-436 cells): 5.05 nM
